How the values were obtained:
[1] = Inhibition of GST-tagged recombinant mouse CLK1/STY expressed in Escherichia coli using RSPSYGRSRSRSRSRSRSRSRSNSRSRSY as substrate in presence of [gamma-32P]ATP by a liquid scintillation counter method
[2] = Inhibition of GST-tagged recombinant mouse CLK2 expressed in Escherichia coli using RSPSYGRSRSRSRSRSRSRSRSNSRSRSY as substrate in presence of [gamma-32P]ATP by a liquid scintillation counter method
[3] = target: T1, Dual specificity protein kinase CLK4 (Homo sapiens, UniProt Q9HAZ1); test: Inhibition of CLK4 (unknown origin)
[4] = target: T2, Dual specificity protein kinase CLK1 (Homo sapiens, UniProt P49759); test: Inhibition of CLK1 (unknown origin)
[5] = target: T1, Dual specificity protein kinase CLK4; test: Inhibition of CLK4 (unknown origin) assessed as reduction in SRSF10 phosphorylation
[6] = target: T1, Dual specificity protein kinase CLK4; test: Inhibition of CLK4 (unknown origin) assessed as reduction in SRSF1 phosphorylation
[7] = target: T2, Dual specificity protein kinase CLK1; test: Inhibition of CLK1 (unknown origin) assessed as reduction in SRSF10 phosphorylation
[8] = target: T1, Dual specificity protein kinase CLK4; test: Inhibition of human CLK4 (146 to 480 residues) expressed in Escherichia coli BL21 (DE3) Turner using MBP as substrate incubated for 60 mins in presence of [gamma-32P]ATP by radiometric kinase assay

T1 sequence (Q9HAZ1 whole entry): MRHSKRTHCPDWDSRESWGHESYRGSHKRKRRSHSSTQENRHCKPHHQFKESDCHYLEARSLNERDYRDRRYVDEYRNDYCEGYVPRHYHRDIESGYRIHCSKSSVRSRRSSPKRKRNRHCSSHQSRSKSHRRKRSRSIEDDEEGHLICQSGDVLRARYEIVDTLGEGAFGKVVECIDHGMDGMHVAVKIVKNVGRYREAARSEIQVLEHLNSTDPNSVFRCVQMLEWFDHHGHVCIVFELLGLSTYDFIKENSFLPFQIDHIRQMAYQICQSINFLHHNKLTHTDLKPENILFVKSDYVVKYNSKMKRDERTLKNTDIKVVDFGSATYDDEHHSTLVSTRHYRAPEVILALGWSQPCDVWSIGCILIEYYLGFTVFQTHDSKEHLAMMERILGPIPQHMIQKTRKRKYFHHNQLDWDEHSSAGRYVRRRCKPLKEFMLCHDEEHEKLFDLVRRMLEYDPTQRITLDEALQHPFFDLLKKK
T2 sequence (P49759 whole entry): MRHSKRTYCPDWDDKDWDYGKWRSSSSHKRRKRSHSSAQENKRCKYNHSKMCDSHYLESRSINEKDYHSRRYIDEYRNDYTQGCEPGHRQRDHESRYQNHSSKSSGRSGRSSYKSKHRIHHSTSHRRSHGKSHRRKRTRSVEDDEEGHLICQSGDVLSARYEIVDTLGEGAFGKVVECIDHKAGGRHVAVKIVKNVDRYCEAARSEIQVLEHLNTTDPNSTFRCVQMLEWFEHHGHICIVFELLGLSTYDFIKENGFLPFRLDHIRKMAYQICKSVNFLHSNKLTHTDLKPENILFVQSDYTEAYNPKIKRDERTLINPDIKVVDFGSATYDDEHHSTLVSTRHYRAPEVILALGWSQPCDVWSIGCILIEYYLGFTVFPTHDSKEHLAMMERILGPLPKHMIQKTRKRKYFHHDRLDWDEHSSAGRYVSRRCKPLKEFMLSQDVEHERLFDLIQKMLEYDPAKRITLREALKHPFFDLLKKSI

CCN1/C(=C/C(C)=O)Sc2ccc(OC)cc21
IC50 [1]: 0.02 µM
IC50 [2]: 0.2 µM

O=C(Nc1ccc2[nH]cnc2c1)c1csc(Nc2ccccc2)n1
IC50 [3]: 0.014 µM
IC50 [4]: 0.044 µM
IC50 [5]: 0.014 µM
IC50 [6]: 0.024 µM
IC50 [7]: 0.044 µM

O=C(O)c1ccc2c(c1)nc(Nc1cccc(Cl)c1)c1ccncc12 [SILMITASERTIB]
IC50 [8]: 0.011 µM

— ChEMBL document CHEMBL5104144, “Exploring the roles of the Cdc2-like kinases in cancers” (Bioorg Med Chem, 2022)
